Laboratory results published in US10350231B2, “Use of cladribine for treating autoimmune inflammatory disease” (Chord Therapeutics S.a.r.l., priority 2014, dated 2019).
Entries after “also recorded” stand apart in the source; their conditions may differ.

Tests used:
[1] = system: IgM associated inflammatory peripheral neuropathy patient; details: intravenous infusion, two courses of cladribine, cited from earlier work
human lymphocytes = details: phosphorylation by CK blocked, lymphocyte death does not occur; cited from earlier work
[2] = biological target: A2A (adenosine receptor class 2a) (Homo sapiens, UniProt P29274); details: cited from earlier work
[3] = system: neuromyelitis optica (NMO) patient; experiment: Case report of off-label treatment of NMO patient with cladribine; format: in vivo, human
Description: A person presented with acute visual symptoms and optic neuritis with normal head MRI. Episodic visual symptoms recurred with increasing severity up to complete blindness in one eye and episodes of deterioration in the other. Some response to methylprednisolone was noted. The diagnostic test for NMO-IgG (ELISA) was positive and brain MRI had no focal lesions.
20 mg of cladribine were administered subcutaneously to the patient on each of five dosing days, with one month or more separating the dosing days. On a dosing day, two vials were used each containing 10 ml of a solution of cladribine as shown in Example 2. Eight subcutaneous sites were used, each receiving an injection of 2.5 ml.
At the end of nine months blindness was complete bilaterally but motor and sensory functions were normal. […] After 2 years the patient was admitted with motor, sensory and autonomic symptoms. Based on new symptoms, abnormalities on spinal cord MRI and the previous NMO-IgG test the diagnosis was confirmed as neuromyelitis optica. After 3 months there was partial improvement but remaining mild paraparesis.
Prior to cladribine treatment this patient experienced five episodes of worsening over four years (estimated annual relapse rate of 1.46). The intervening remission periods were 13, 15, 6 and 6 months. From initiation of an 8-month course of cladribine treatment they experienced 34 months of stable condition without reported relapses, followed by subsequent deterioration and other treatments.

[4] = system: T lymphocytes from NMO patients; experiment: Stimulated (anti-CD3/anti-CD28) cytokine secretion by T lymphocytes from NMO patients; format: cell-based, human; details: cladribine 1×10^−9M to 1×10^−4M, supernatants e.g. 24 hours, compared with healthy donors
Description: Using the methods described in Laugel B. et al., J. Neuroimmunol.; (2011); 240-241; 52-57 peripheral blood mononuclear cells (PBMCs) are first isolated from blood obtained from healthy donors and NMO patients, for example by ficoll gradient centrifugation. T-lymphocytes are further purified from these PBMCs, by for example magnetic bead separation using a pan-T cell reagents, or CD4 reagents. The purified lymphocytes are maintained in culture using standard methods and reagents, for example RPMI-1640 growth medium.
To determine the effect of cladribine on stimulated cytokine secretion by T lymphocytes from NMO patients, identical numbers of purified lymphocytes purified from both healthy donor and NMO patients are pre-incubated for less than one hour in medium containing one of a number of cladribine concentrations, ranging from for example one nanomolar to one hundred micromolar (1×10^−9M to 1×10^−4M), or without added cladribine. Cells are then transferred, with their cladribine-containing or control medium, to the wells of culture plates coated with anti-CD3 antibody, and soluble anti-CD28 antibody is added. Secreted cytokines in culture supernatants collected after, for example, 24 hours, are determined by one of several standard methods including bead-based cytometric cytokine assay and enzyme-linked immunosorbent assay. […]

[5] = system: T-lymphocytes from NMO patients; experiment: In vitro viability response of lymphocytes derived from NMO patients to cladribine; format: cell-based, human; details: cladribine 1×10^−9M to 1×10^−4M, e.g. four days; with or without anti-CD3/anti-CD28; compared with healthy donors
Description: Using the methods described in Laugel B. et al., J. Neuroimmunol.; (2011); 240-241; 52-57 peripheral blood mononuclear cells (PBMCs) are first isolated from blood obtained from healthy donors and NMO patients, for example by ficoll gradient centrifugation. T-lymphocytes are further purified from these PBMCs, by for example magnetic bead separation using a pan-T cell reagents, or CD4 reagents. […] To determine the cells' viability response to cladribine, identical numbers of lymphocytes purified from both healthy donor and NMO patients are cultured with one of a number of cladribine concentrations, ranging from for example one nanomolar to one hundred micromolar (1×10^−9M to 1×10^−4M), or without any cladribine. After a period of several days, for example four days, the fraction of live cells is determined, for example by annexin V staining or trypan blue staining. This experiment is done either under stimulated conditions (that is, with the addition of anti-CD3 and anti-CD28 antibodies in all cultures, as below) or without these stimulating antibodies.

NMO patients = details: cited from earlier work

Sequence of A2A (adenosine receptor class 2a) (P29274 whole entry): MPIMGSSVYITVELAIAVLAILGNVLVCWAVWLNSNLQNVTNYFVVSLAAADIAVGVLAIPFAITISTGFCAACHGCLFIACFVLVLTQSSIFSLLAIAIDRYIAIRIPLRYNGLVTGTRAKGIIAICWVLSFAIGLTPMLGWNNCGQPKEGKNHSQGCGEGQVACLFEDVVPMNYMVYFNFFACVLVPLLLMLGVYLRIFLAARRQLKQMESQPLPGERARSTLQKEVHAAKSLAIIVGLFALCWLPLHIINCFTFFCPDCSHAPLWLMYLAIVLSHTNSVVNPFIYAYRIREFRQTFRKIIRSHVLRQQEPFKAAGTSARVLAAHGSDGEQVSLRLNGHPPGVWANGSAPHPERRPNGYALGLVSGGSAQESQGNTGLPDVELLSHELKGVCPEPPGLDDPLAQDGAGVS

Nc1nc(Cl)nc2c1ncn2[C@H]1C[C@H](O)[C@@H](CO)O1 [cladribine, 2-chloro-2′-deoxyadenosine]
IgM antibody levels [1]: IgM levels declined slowly over a period of more than one year
symptoms ([1]; maintained for several years): symptomatic improvement
induced cytokine production (human lymphocytes): decreased
affinity at A2A receptors [2]: binds with high affinity
disease course after cladribine treatment ([3]; one NMO patient, single course 100 mg s.c., no further immunosuppressant treatment): two years without noted deterioration; also recorded: stabilization of the disease course for over two years
adverse events attributed to cladribine ([3]; one NMO patient, total 100 mg cladribine s.c.): No adverse events attributed to cladribine were reported
stable condition without reported relapses ([3]; one NMO patient, total 100 mg cladribine s.c., from initiation of an 8-month course): 34 months
period of beneficial effects on the disease without retreatment ([3]; short period of treatment (several weeks)): over 18 months
secretion of cytokines by lymphocytes from NMO patients [4]: inhibited by cladribine in a manner and to a degree similar to the inhibition seen in lymphocytes from healthy donors
viability (fraction of live cells) of lymphocytes from NMO patients [5]: die over several days in a manner and to an extent similar to those purified from healthy donors

O=C1c2c(O)ccc(O)c2C(=O)c2c(NCCNCCO)ccc(NCCNCCO)c21 [mitoxantrone]
disease course under mitoxantrone ([3]; same patient, after relapse following cladribine, impaired walking, neurogenic bladder, blindness): progressive deterioration

Glatiramer acetate
effect on NMO (NMO patients): has not been found to be effective
